In patent US20160008243A1, “METHOD OF TREATING HAIR” (priority 2013, published 2016):

Assay: Hair switch straightening test (switch volume after treatment, rinsing, combing and drying)
Experimental: Dark brown European wavy#6 switches of length 25 cm and weight 2 gms, were dosed with 2 ml each of different levels of trans aconitic acid solutions. They were combed straight and left to develop for at least 20 minutes. They were subsequently rinsed for 30 seconds under the tap. They were then combed straight and left to dry overnight. When dry the switches were combed straight and pictures taken. All switches looked straight without the waviness of the pre-treated switches. […] (Here volume refers to the projection of the switch image on to the screen and is given in mm^2).

[1] = 5% solution at pH 2, 2 ml per 2 g switch, at least 20 min, rinsed, dried overnight

Row | Structure (SMILES) | % benefit over water (5% solution at pH 2) [%] | Volume in mm^2 (projection of the switch image on to the screen) [1] [mm^2] | % benefit over water (0.5% solution at pH 2) [%] | Volume in mm^2 (projection of the switch image on to the screen) (0.5% solution at pH 2) [mm^2] | % benefit over water (1% solution at pH 2) [%] | Volume in mm^2 (projection of the switch image on to the screen) (1% solution at pH 2) [mm^2] | % benefit over water (2.5% solution at pH 2) [%] | Volume in mm^2 (projection of the switch image on to the screen) (2.5% solution at pH 2) [mm^2] | % benefit over water (5% solution at pH 3) [%] | Volume in mm^2 (projection of the switch image on to the screen) (5% solution at pH 3) [mm^2] | Hair straightening benefit (in words) (applied to hair, conclusion from the table)
1 | O=C(O)CC(O)(CC(=O)O)C(=O)O [Citric acid, reference compound] | 33.6 | 9481 | – | – | – | – | – | – | – | – | –
2 | O=C(O)/C=C(\CC(=O)O)C(=O)O [trans Aconitic acid, trans aconitic acid] | 40.8 | 8456 | 15.4 | 12073 | 20.4 | 11363 | 24.6 | 10763 | 17.3 | 11812 | gives hair straightening benefits
